The values below come from patent EP1669365A1, “Method for preparing enzymatic substrate analogs as inhibitors of bacterial heptosyl-transferases” (priority 2004, dated 2006).

The target in the experiment is T1, WaaC (Escherichia coli, UniProt P24173).
T1 construct: made in house; host or cells: E. coli BL21 double mutant with the heptosyltransferase I and II genes deleted
The experiment in a line: WaaC IC50 fluorimetric in vitro heptosyltransferase assay (NADH fluorescence, pyruvate kinase/lactate dehydrogenase coupled). The note with it: inhibitory activity on Waac enzymatic activity; 1nM purified WaaC, 3µM Re-LPS, pH 7.0. The experiment is classed as biochemical. On the procedure: A fluorimetric in vitro assay was set up to quantify the enzymatic activity of purified heptosyl transferase.Said fluorimetic assay is used to identify inhibitors and for measuring IC50 determinations.
WaaC IC50 assays are performed in black 96-well plates (Wallac) in a final volume of 100µL at pH 7.0 comprising: the inhibitor studied dissolved in 2µL DMSO at 10 different concentrations, 50mM HEPES, 10mM MgCl2, 50mM KCl, 0.1% Triton-), 3µM Re-LPS (Sigma, purified from Salmonella Minnesota), 1nM of purified WaaC, 5u/mL Pyruvate kinase (Sigma), 50µM Phosphoenolpyruvate (Sigma), 5u/mL Lactate dehydrogenase (Sigma) and 1.5µM NADH (Sigma). Fluorescence intensity of NADH (λex= 360nm, λem=520nm) is read once before enzyme addition (background), and is followed kinetically afterwards. Initial velocities are determined from the linear phase after background substraction. IC50 curves are fitted to a classical sigmoidal model with Hill slope.

pIC50: −log10 of the molar value.

T1 sequence (P24173 whole entry): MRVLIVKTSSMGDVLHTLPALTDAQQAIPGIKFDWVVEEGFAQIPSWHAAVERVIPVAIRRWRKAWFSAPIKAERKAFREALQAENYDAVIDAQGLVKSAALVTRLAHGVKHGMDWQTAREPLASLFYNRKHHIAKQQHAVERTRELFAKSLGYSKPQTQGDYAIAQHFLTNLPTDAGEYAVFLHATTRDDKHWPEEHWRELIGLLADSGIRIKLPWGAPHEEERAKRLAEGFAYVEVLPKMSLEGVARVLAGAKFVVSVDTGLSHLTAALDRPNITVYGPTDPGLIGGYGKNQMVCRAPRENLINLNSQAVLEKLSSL

Regarding “Adenosine 5'-diphospho-2-Deoxy-2-fluoro-6-L-glycero-β-D-heptoglucopyranoside”, the pIC50 (as a rule, the negative decadic logarithm of the IC50, by convention in mol/L) was 4.24.
